Measurements reported in ChEMBL document CHEMBL1201862, “PubChem BioAssay data set” (2004).
Values joined by “and” are separate entries in the source; they are usually repeats but may differ in a detail not shown here. Equal entries are not always repeated.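 Dose response: 5 concentrations. Exposure: 48 h. Format: 96-well plates. Endpoint: linear interpolation; highest concentration if not reached. GI50 marks 50% less growth.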 Active and inactive are the calls of the source. No stated cut-off is given here; in the data, active = GI50 up to about 1.1 µM and inactive = higher.

Tests used:
Assay in all cases: growth of human tumour cells (NCI), 48 h
Hs-578T = tested on: Hs-578T
SR = tested on: SR
RXF 393 = tested on: RXF 393
OVCAR-4 = tested on: OVCAR-4
KM12 = tested on: KM12
OVCAR-8 = tested on: OVCAR-8
MOLT-4 = tested on: MOLT-4
M14 = tested on: M14
SN12C = tested on: SN12C
A498 = tested on: A498
SK-MEL-2 = tested on: SK-MEL-2
CCRF-CEM = tested on: CCRF-CEM
SK-OV-3 = tested on: SK-OV-3
U-251 = tested on: U-251
OVCAR-5 = tested on: OVCAR-5
ACHN = tested on: ACHN
MDA-MB-435 = tested on: MDA-MB-435
UO-31 = tested on: UO-31
HCC 2998 = tested on: HCC 2998

Compound | GI50 (Hs-578T) | GI50 (SR) | GI50 (RXF 393) | GI50 (OVCAR-4) | GI50 (KM12) | GI50 (OVCAR-8) | GI50 (MOLT-4) | GI50 (M14) | GI50 (SN12C) | GI50 (A498) | GI50 (SK-MEL-2) | GI50 (CCRF-CEM) | GI50 (SK-OV-3) | GI50 (U-251) | GI50 (OVCAR-5) | GI50 (ACHN) | GI50 (MDA-MB-435) | GI50 (UO-31) | GI50 (HCC 2998)
CC(C)c1ccccc1[S+]([O-])c1ccccc1C(C)(C)O (centres undefined) | 50.4 µM (inactive) | > 100 µM (inactive) | > 100 µM (inactive) | > 100 µM (inactive) | 30.8 µM (inactive) | > 100 µM (inactive) | > 100 µM (inactive) | > 100 µM (inactive) | > 100 µM (inactive) | 20 µM (inactive) | 67.6 µM (inactive) | > 100 µM (inactive) | 30.9 µM (inactive) | 18.9 µM (inactive) | 56.2 µM (inactive) | > 100 µM (inactive) | 39.6 µM (inactive) |  | 
C1=Cc2ccccc2C1.C=C(C)c1ccccc1.[N-]=[N+]=Nc1ccccc1 | 39.1 µM (inactive) | > 100 µM (inactive) | > 100 µM (inactive) | > 100 µM (inactive) | 50.5 µM (inactive) | > 100 µM (inactive) | 96.2 µM (inactive) | > 100 µM (inactive) | > 100 µM (inactive) | > 100 µM (inactive) | > 100 µM (inactive) |  | > 100 µM (inactive) | 71.3 µM (inactive) | > 100 µM (inactive) | > 100 µM (inactive) | 70.6 µM (inactive) | > 100 µM (inactive) | 
c1ccc(NN(Cc2cnccn2)c2ccccc2)cc1 | > 100 µM (inactive) | 61.9 µM (inactive) | > 100 µM (inactive) | 63 µM (inactive) | > 100 µM (inactive) | 66.7 µM (inactive) | 42.3 µM (inactive) | 90.2 µM (inactive) | 63.8 µM (inactive) | 28.8 µM (inactive) | > 100 µM (inactive) | 10.5 µM (inactive) | > 100 µM (inactive) | 65 µM (inactive) | > 100 µM (inactive) | > 100 µM (inactive) | 89.9 µM (inactive) |  | 
COC1CC(C)(NC(C)=O)C2OC(c3ccccc3)OCC2O1 (centres undefined) | > 100 µM (inactive) | > 100 µM (inactive) | > 100 µM (inactive) | > 100 µM (inactive) | > 100 µM (inactive) | > 100 µM (inactive) | > 100 µM (inactive) | > 100 µM (inactive) | > 100 µM (inactive) | > 100 µM (inactive) |  | > 100 µM (inactive) | > 100 µM (inactive) | > 100 µM (inactive) | > 100 µM (inactive) | > 100 µM (inactive) | > 100 µM (inactive) | > 100 µM (inactive) | 
Cc1ccc2c(=O)cc(-c3ccc(-c4ccccc4)s3)[nH]c2n1 | > 46.7 µM (inactive) | 2.43 µM (inactive) | > 59.8 µM (inactive) | 38.5 µM (inactive) | > 24.5 µM (inactive) | > 58.3 µM (inactive) | 4.18 µM (inactive) | > 100 µM (inactive) | 58.6 µM (inactive) | 14.2 µM (inactive) | > 100 µM (inactive) | > 25.2 µM (inactive) | 44.5 µM (inactive) | 16.4 µM (inactive) | > 100 µM (inactive) | > 100 µM (inactive) | 5.33 µM (inactive) | 0.0305 µM (active) | 
COC(=O)C1OC(O[C@H]2CC[C@]3(C)[C@H]4CC=C5[C@@H]6CC(C)(C)CC[C@]6(C(=O)OC6OCC(O)C(O)C6OC6OC(C)C(OC7OCC(O)C(OC8OCC(O)C(O)C8O)C7O)C(OC7OCC(O)C(O)C7O)C6O)CC[C@@]5(C)[C@]4(C)CC[C@H]3C2(C)C)C(O)C(OC2OCC(O)C(O)C2O)C1O (some centres undefined) | 16.1 µM (inactive) and 19.7 µM (inactive) | 1.75 µM (inactive) and 2.72 µM (inactive) |  | 6.61 µM (inactive) and 5.24 µM (inactive) | 3.1 µM (inactive) and 3.08 µM (inactive) | 13.2 µM (inactive) and 10.4 µM (inactive) | 8.24 µM (inactive) and 4.91 µM (inactive) | 1.95 µM (inactive) and 2.25 µM (inactive) | 2.25 µM (inactive) and 2.31 µM (inactive) | 1.94 µM (inactive) and 1.66 µM (inactive) | 2.22 µM (inactive) and 2.93 µM (inactive) | 11.3 µM (inactive) and 10.6 µM (inactive) | 12.8 µM (inactive) and 16.6 µM (inactive) | 7.41 µM (inactive) and 6.87 µM (inactive) | 5.31 µM (inactive) and 4.75 µM (inactive) | 4.84 µM (inactive) and 4.03 µM (inactive) | 2.13 µM (inactive) and 2.14 µM (inactive) | 2.01 µM (inactive) and 1.9 µM (inactive) | 1.78 µM (inactive) and 1.67 µM (inactive)
OC(c1cc2ccccc2o1)c1cc2ccccc2s1 (centres undefined) | 9.53 µM (inactive) | > 10 µM (inactive) | > 10 µM (inactive) | > 10 µM (inactive) | 7.23 µM (inactive) | > 10 µM (inactive) | > 10 µM (inactive) | > 10 µM (inactive) | > 10 µM (inactive) |  | > 10 µM (inactive) | > 10 µM (inactive) | > 10 µM (inactive) | > 10 µM (inactive) | > 10 µM (inactive) | > 10 µM (inactive) | 3.78 µM (inactive) | > 10 µM (inactive) | > 10 µM (inactive)
CC(=O)OC[C@@H]1[C@H]2CC[C@]3(C)[C@@H](OC(C)=O)CC[C@H]3[C@@H]2CC[C@H]1C1(C)SCCS1 | > 25 µM (inactive) | > 25 µM (inactive) | > 25 µM (inactive) | > 25 µM (inactive) | > 25 µM (inactive) | > 25 µM (inactive) | > 25 µM (inactive) | > 25 µM (inactive) | > 25 µM (inactive) | > 25 µM (inactive) |  | > 25 µM (inactive) |  | > 25 µM (inactive) | > 25 µM (inactive) | > 25 µM (inactive) | > 25 µM (inactive) | > 25 µM (inactive) | > 25 µM (inactive)
